Laboratory results reported in US20070213359A1 (ACADIA Pharmaceuticals Inc., priority 2005, published 2007).
Read-outs that look alike come from different tables or passages of the source.

Target: Ghrelin receptor (Homo sapiens, UniProt Q92847)
Assay: Receptor Selection and Amplification Technology (R-SAT) assay
Assay type: cell-based
Set-up: expressed in transfected cells; host or cells: NIH3T3
Conditions: for IC50: '—' not defined (nd used separately), read-out: RSAT pIC50 (converted); for Emax: read-out: RSAT Eff(%)
[1] = negative logarithm of ligand concentration causing 50% inhibition of constitutive receptor response, transfected NIH3T3 cells
[2] = percent inhibition at saturating ligand, normalized to reference ligand Substance P analog = 100%

Ghrelin receptor, sequence (Q92847 whole entry): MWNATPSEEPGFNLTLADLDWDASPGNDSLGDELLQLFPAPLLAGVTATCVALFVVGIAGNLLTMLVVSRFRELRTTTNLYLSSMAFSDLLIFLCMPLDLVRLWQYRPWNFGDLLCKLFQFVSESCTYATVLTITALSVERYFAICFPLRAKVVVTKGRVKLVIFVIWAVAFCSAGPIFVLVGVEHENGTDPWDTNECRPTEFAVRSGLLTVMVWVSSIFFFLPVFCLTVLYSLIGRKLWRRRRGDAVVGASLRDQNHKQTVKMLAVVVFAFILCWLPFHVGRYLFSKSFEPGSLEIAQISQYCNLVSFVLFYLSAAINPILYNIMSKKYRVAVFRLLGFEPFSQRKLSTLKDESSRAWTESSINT

Structure (SMILES): CC(=O)c1cn(CCCN2CCC(Oc3cccc(Cl)c3)CC2)c2c(Br)cccc12
- IC50 [1]: 0.001 µM
- Emax [2]: 92%

Structure (SMILES): COc1cccc2c(C(=O)C3CC3)cn(CCCN3C4CCC3CC(CCc3ccccc3)C4)c12 (stereo not drawn)
- IC50 ([…]): 0.00251 µM
- Emax: 109%

Structure (SMILES): CC(=O)c1cn(CCCN2CCCN(Cc3ccc(F)cc3)CC2)c2c(C)cccc12
- IC50 ([…]): 0.00251 µM
- Emax: 95%

Structure (SMILES): COc1cccc2c(C(=O)NCc3cccc(Cl)c3)cn(CCCN3CCCN(Cc4ccc(F)cc4)CC3)c12
- IC50 ([…]): 0.00316 µM
- Emax: 113%

Structure (SMILES): COc1cccc2c(C(=O)Cc3ccccc3)cn(CCCN3C4CCC3CC(Oc3ccccc3Cl)C4)c12 (stereo not drawn)
- IC50 ([…]): 0.00398 µM
- Emax: 129%

Structure (SMILES): COc1cccc2c(C(=O)C3CC3)cn(CCCN3CCC4(CC3)CC(=O)c3ccccc3O4)c12
- IC50 ([…]): 0.00398 µM
- Emax: 106%

Structure (SMILES): CC(=O)c1cn(CCCN2CCCN(Cc3ccc(F)cc3)CC2)c2ncccc12
- IC50 [1]: 0.00501 µM
- Emax [2]: 136%

Structure (SMILES): CC(=O)c1cn(CCCN2CCCN(Cc3ccc(F)cc3)CC2)c2c(Br)cccc12
- IC50 [1]: 0.00501 µM
- Emax [2]: 95%

Structure (SMILES): CC(=O)c1cn(CCCN2C3CCC2CC(CCc2ccccc2)C3)c2c(C)cccc12 (stereo not drawn)
- IC50 [1]: 0.00631 µM
- Emax [2]: 105%

Structure (SMILES): CC(=O)c1cn(CCCN2CCCN(Cc3ccc(F)cc3)CC2)c2c(Cl)cccc12
- IC50 [1]: 0.00794 µM
- Emax [2]: 115%

Structure (SMILES): CC(=O)c1cn(CCCN2CCCN(CCc3ccccc3)CC2)c2c(Cl)cccc12
- IC50 [1]: 0.01 µM
- Emax [2]: 96%

Structure (SMILES): CC(=O)c1cn(CCCN2CCC(Oc3cccc(Cl)c3)CC2)c2c(C)cccc12
- IC50 [1]: 0.01 µM
- Emax [2]: 96%

Structure (SMILES): CC(=O)c1cn(CCCN2C3CCC2CC(CCc2ccccc2)C3)c2c(Cl)cccc12 (stereo not drawn)
- IC50 [1]: 0.0126 µM
- Emax [2]: 109%

Structure (SMILES): COc1cccc2c(C#N)cn(CCCN3CCCN(Cc4ccc(F)cc4)CC3)c12
- IC50 [1]: 0.0158 µM
- Emax [2]: 109%

Structure (SMILES): CC(=O)c1cn(CCCN2CCN(Cc3ccc(Cl)cc3Cl)CC2)c2c(C#N)cccc12
- IC50 [1]: 0.0158 µM
- Emax [2]: 92%

Structure (SMILES): CC(=O)c1cn(CCCN2C3CCC2CC(Oc2ccc(F)cc2)C3)c2c(Br)cccc12 (stereo not drawn)
- IC50 [1]: 0.0158 µM
- Emax [2]: 81%

Structure (SMILES): COc1cccc2c(C(=O)NCc3cccc(C)c3)cn(CCCN3C4CCC3CC(Oc3ccc(F)cc3)C4)c12 (stereo not drawn)
- IC50 [1]: 0.0158 µM
- RSAT Eff(%) [2]: 112%

Structure (SMILES): CC(=O)c1cn(CCCN2C3CCC2CC(Oc2ccc(F)cc2)C3)c2c(C)cccc12 (stereo not drawn)
- IC50 [1]: 0.02 µM
- Emax [2]: 98%

Structure (SMILES): CCc1cccc2c(C(C)=O)cn(CCCN3CCCC(Cc4ccccc4Cl)C3)c12 (stereo not drawn)
- IC50 [1]: 0.02 µM
- Emax [2]: 87%

Structure (SMILES): CC(=O)c1cn(CCCN2CCC(c3nc(-c4ccncc4)no3)CC2)c2c(C)cccc12
- IC50 [1]: 0.0316 µM
- Emax [2]: 137%

Structure (SMILES): CC(=O)c1cn(CCCN2C3CCC2CC(CCc2ccc(Cl)cc2)C3)c2c(Cl)cccc12 (stereo not drawn)
- IC50 [1]: 0.0316 µM
- Emax [2]: 122%

Structure (SMILES): CCc1cccc2c(C(C)=O)cn(CCCN3CCCN(CCc4ccccc4)CC3)c12
- IC50 [1]: 0.0316 µM
- Emax [2]: 103%

Structure (SMILES): COc1cccc2c(C(=O)NCc3cccc(C)c3)cn(CCCN3CCC(Oc4cccc(Cl)c4)CC3)c12
- IC50 [1]: 0.0316 µM
- Emax: 93%

Structure (SMILES): COc1cccc2c(C(=O)NCC(C)C)cn(CCCN3CCC(Oc4cccc(Cl)c4)CC3)c12
- IC50 [1]: 0.0316 µM
- Emax: 71%

Structure (SMILES): CC(=O)c1cn(CCCN2CCN(CCOc3ccccc3)CC2)c2c(C#N)cccc12
- IC50 [1]: 0.0316 µM
- Emax [2]: 86%

Structure (SMILES): CC(=O)c1cn(CCCN2CCC(c3nc(-c4cccnc4)no3)CC2)c2c(Br)cccc12
- IC50 [1]: 0.0398 µM
- Emax [2]: 119%

Structure (SMILES): CCc1cccc2c(C(C)=O)cn(CCCN3CCN(CCOc4ccccc4)CC3)c12
- IC50 [1]: 0.0398 µM
- Emax [2]: 110%

Structure (SMILES): CC(=O)c1cn(CCCNCCOc2ccccc2)c2c(C)cccc12
- IC50 [1]: 0.0398 µM
- Emax [2]: 100%

Structure (SMILES): CC(=O)c1cn(CCCN2CCCN(CCc3ccccc3)CC2)c2c(C#N)cccc12
- IC50 [1]: 0.0398 µM
- Emax [2]: 83%

Structure (SMILES): CCc1cccc2c(C(C)=O)cn(CCCN3CCC(c4nc(-c5ccncc5)no4)CC3)c12
- IC50 [1]: 0.0398 µM
- Emax [2]: 121%

Structure (SMILES): CC(=O)c1cn(CCCN2C3CCC2CC(CCc2ccc(Cl)cc2)C3)c2c(Br)cccc12 (stereo not drawn)
- IC50 [1]: 0.0398 µM
- Emax [2]: 106%

Structure (SMILES): COc1cccc2c(C(=O)Cc3ccccc3)cn(CCCN3CCCC(Oc4ccc(Cl)cc4)C3)c12 (stereo not drawn)
- IC50 ([…]): 0.316 µM
- Emax: 86%

Structure (SMILES): CC(C)CC(=O)c1cn(CCCN2CCN(C(C)c3ccccc3)CC2)c2ccccc12 (stereo not drawn)
- IC50 ([…]): 0.398 µM
- Emax: 106%

Structure (SMILES): CC(=O)c1cn(CCCCN2CCC(Oc3ccccc3Cl)CC2)c2ccccc12
- IC50 ([…]): 0.398 µM
- Emax: 46%

Structure (SMILES): COc1cccc2c(C(=O)C3CC3)cn(CCCN3CCC(C(=O)c4ccccc4)CC3)c12
- IC50 ([…]): 0.398 µM
- Emax: 100%

Structure (SMILES): COc1cccc2c(C(=O)C3CC3)cn(CCCN3CCC(Oc4ccc(Cl)cc4)CC3)c12
- IC50 ([…]): 0.501 µM
- Emax: 90%

Structure (SMILES): CC(=O)c1c(C)n(CCCN2CCCN(CCc3ccccc3)CC2)c2c(Br)cccc12
- IC50 ([…]): 0.501 µM
- Emax: 42%

Structure (SMILES): CC(=O)c1cn(CCCN2C3CCC2CC(Oc2ccc(Cl)cc2)C3)c2ccccc12 (stereo not drawn)
- IC50 ([…]): 0.501 µM
- Emax: 108%

Structure (SMILES): COc1cccc2c(C(=O)c3ccccc3)cn(CCCN3CCC(C(=O)c4ccccc4)CC3)c12
- IC50 ([…]): 0.501 µM
- Emax: 102%

Structure (SMILES): COc1cccc2c(C(=O)C3CC3)cn(CCCN3CCC(c4nc5ccccc5s4)CC3)c12
- IC50 ([…]): 0.501 µM
- Emax: 88%

Structure (SMILES): CCCOC1CCN(CCCn2cc(C(C)=O)c3ccccc32)CC1
- IC50 ([…]): 0.631 µM
- Emax: 112%

Structure (SMILES): COc1ccccc1C1CCN(CCCn2cc(C(=O)NCc3cccc(Cl)c3)c3cccc(OC)c32)CC1
- IC50 ([…]): 0.631 µM
- Emax: 127%

Structure (SMILES): COc1ccc2[nH]c3c(c2c1)CCN(CCCn1cc(C(C)=O)c2ccc(OC)cc21)C3
- IC50 ([…]): 0.794 µM
- Emax [2]: 69%

Structure (SMILES): COc1ccc2[nH]c3c(c2c1)CCN(CCCn1cc(C(C)=O)c2ccccc21)C3
- IC50 ([…]): 0.794 µM
- Emax [2]: 76%

Structure (SMILES): CCCCC1CCN(CCCCn2cc(C(C)=O)c3ccccc32)CC1
- IC50 ([…]): 0.794 µM
- Emax: 113%

Structure (SMILES): COc1cccc2c(C(C)=O)cn(CCCN3CCC(N4CCOCC4)CC3)c12
- IC50 ([…]): 1 µM
- Emax: 95%

Structure (SMILES): CCC(=O)c1cn(CCCN2CCC(O)(Cc3ccccc3)CC2)c2ccccc12
- IC50 ([…]): 1 µM
- Emax: 73%

Structure (SMILES): CC(=O)c1cn(CCCN2C3CCC2CC(CC(=O)c2ccccc2)C3)c2c(Cl)cccc12 (stereo not drawn)
- IC50 ([…]): 1.58 µM
- Emax: 85%

Structure (SMILES): COc1cccc2c(C(C)=O)cn(CCCN3CCN(CC(=O)N4CCOCC4)CC3)c12
- IC50 ([…]): 1.58 µM
- Emax: 37%

Structure (SMILES): COc1cccc2c(C(=O)NCc3cccc(Cl)c3)cn(CCCN3CCCC(Cc4ccccc4Cl)C3)c12 (stereo not drawn)
- IC50 ([…]): 2 µM
- Emax: 47%

Structure (SMILES): COc1cccc2c(C(=O)C3CC3)cn(CCCN3C4CCC3CC(CC(=O)c3ccccc3)C4)c12 (stereo not drawn)
- IC50 ([…]): 2 µM
- Emax: 86%

Structure (SMILES): COc1cccc2c(C(=O)NCc3cccc(Cl)c3)cn(CCCN3CCC(C(=O)c4ccccc4)CC3)c12
- IC50 ([…]): 2.51 µM
- Emax: 114%

Structure (SMILES): CC(=O)c1cn(CCCN2CCC(C(=O)c3ccccc3)CC2)c2cc(Br)ccc12
- IC50 ([…]): 2.51 µM
- Emax: 36%

Structure (SMILES): CCCOC1CCN(CCn2cc(C(C)=O)c3ccccc32)CC1
- IC50 ([…]): 3.16 µM
- Emax: 40%

Structure (SMILES): CCOC(=O)C1CCN(CCn2cc(C(C)=O)c3ccccc32)CC1
- IC50 ([…]): 3.98 µM
- Emax: 72%

Structure (SMILES): COc1ccccc1C1CCN(CCn2cc(C(C)=O)c3ccccc32)CC1
- IC50 ([…]): 5.01 µM
- Emax: 44%

Structure (SMILES): CCOC(=O)C1CCN(CCCn2cc(C(=O)C(F)(F)F)c3ccccc32)CC1
- IC50 ([…]): 5.01 µM
- Emax: 64%
